Calls of active or inactive are those of the source.

Assay [1] has as its target T1, Serine/threonine-protein kinase Nek1 (Homo sapiens, UniProt Q96PY6).
T1 sequence (Q96PY6 whole entry): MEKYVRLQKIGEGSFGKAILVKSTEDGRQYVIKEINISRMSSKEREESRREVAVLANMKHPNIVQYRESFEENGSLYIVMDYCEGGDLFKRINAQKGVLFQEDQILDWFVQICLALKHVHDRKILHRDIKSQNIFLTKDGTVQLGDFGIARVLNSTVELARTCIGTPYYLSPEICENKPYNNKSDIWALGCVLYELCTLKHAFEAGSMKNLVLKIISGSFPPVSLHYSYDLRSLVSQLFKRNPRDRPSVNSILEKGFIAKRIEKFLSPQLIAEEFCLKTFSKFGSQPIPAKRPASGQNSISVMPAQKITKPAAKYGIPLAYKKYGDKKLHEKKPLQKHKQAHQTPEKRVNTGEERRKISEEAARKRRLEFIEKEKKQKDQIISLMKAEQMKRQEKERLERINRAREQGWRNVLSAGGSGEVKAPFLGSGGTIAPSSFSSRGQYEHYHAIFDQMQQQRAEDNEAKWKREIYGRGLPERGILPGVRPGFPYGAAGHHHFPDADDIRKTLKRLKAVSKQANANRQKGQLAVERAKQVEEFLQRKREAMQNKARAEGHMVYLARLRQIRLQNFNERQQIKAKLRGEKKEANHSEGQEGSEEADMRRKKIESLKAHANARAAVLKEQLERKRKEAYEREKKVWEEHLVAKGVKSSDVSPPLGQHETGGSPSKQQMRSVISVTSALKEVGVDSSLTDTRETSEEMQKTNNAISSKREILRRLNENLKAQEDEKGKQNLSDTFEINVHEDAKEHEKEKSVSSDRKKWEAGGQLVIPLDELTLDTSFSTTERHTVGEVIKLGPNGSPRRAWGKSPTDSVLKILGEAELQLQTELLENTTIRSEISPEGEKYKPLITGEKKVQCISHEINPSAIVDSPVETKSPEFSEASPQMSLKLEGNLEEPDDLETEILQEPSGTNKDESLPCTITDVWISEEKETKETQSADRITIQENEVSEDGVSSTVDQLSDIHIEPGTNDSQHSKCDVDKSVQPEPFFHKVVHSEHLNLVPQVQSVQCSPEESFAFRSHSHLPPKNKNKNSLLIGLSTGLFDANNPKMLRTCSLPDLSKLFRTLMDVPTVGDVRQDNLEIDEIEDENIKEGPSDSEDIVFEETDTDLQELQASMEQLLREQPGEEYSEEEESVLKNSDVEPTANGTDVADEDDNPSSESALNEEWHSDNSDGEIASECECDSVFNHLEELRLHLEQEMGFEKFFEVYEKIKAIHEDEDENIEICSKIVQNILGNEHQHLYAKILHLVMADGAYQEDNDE

Assay [2] addresses T2, ATP-dependent 6-phosphofructokinase, platelet type (Homo sapiens, UniProt Q01813).
T2 sequence (Q01813 whole entry): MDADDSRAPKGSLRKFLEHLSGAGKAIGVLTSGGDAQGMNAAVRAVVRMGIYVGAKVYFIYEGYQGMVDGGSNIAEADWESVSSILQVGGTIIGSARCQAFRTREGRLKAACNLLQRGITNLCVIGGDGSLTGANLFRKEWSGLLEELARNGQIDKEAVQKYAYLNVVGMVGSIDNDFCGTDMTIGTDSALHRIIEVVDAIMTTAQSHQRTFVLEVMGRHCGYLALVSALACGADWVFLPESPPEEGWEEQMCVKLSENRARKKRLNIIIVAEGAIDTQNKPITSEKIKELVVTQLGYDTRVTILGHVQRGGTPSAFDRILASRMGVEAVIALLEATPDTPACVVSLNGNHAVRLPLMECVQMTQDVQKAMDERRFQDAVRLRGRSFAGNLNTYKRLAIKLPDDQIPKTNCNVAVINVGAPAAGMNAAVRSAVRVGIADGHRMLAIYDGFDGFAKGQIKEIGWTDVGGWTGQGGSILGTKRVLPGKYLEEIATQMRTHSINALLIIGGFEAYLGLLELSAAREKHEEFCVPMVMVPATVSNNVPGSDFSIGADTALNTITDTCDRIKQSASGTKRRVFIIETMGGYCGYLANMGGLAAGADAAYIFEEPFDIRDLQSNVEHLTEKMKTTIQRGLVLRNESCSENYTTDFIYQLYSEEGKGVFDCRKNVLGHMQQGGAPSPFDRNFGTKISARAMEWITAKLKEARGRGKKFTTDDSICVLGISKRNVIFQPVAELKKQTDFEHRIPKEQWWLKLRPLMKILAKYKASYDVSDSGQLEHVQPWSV

Assay [3] has as its target Cyclin-dependent kinase 7 (Homo sapiens, UniProt P50613).
Assay [4] concerns the target Cyclin-dependent kinase 5 (Homo sapiens, UniProt Q00535).
Assay [5] has as its target T3, Serine/threonine-protein kinase STK11 (Homo sapiens, UniProt Q15831).
T3 sequence (Q15831 whole entry): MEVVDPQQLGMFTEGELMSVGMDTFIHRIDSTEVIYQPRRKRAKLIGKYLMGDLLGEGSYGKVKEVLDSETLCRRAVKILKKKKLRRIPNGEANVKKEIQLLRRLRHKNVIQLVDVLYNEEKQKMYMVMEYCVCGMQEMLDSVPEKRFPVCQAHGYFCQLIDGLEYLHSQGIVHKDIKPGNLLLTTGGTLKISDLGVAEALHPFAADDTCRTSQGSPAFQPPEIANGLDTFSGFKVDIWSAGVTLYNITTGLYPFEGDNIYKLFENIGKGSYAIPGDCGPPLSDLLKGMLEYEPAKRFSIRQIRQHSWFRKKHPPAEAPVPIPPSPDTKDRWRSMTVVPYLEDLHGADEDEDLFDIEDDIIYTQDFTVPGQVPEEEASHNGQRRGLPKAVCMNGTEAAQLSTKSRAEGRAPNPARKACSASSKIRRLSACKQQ

Assay [6] concerns the target Dual specificity protein kinase CLK1 (Homo sapiens, UniProt P49759).
Further: in the data inactive means no Kd found up to 30 µM.

Cyclin-dependent kinase 7, sequence (P50613 whole entry): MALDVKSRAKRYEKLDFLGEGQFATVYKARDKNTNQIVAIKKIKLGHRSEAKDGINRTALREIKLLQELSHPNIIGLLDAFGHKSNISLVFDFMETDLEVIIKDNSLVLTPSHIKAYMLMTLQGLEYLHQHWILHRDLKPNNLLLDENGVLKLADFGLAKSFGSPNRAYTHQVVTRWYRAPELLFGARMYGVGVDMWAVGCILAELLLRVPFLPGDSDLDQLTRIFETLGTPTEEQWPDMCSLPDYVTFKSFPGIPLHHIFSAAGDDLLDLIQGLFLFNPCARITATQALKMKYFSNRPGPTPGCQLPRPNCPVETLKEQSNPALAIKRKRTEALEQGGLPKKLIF
Cyclin-dependent kinase 5, sequence (Q00535 whole entry): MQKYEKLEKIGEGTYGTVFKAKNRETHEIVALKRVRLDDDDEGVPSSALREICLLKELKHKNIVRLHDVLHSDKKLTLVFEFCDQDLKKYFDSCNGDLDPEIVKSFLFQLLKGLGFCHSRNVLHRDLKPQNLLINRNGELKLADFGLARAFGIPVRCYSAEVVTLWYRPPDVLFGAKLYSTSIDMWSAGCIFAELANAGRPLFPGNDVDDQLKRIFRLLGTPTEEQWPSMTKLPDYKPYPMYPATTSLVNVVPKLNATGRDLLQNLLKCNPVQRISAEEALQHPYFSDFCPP
Dual specificity protein kinase CLK1, sequence (P49759 whole entry): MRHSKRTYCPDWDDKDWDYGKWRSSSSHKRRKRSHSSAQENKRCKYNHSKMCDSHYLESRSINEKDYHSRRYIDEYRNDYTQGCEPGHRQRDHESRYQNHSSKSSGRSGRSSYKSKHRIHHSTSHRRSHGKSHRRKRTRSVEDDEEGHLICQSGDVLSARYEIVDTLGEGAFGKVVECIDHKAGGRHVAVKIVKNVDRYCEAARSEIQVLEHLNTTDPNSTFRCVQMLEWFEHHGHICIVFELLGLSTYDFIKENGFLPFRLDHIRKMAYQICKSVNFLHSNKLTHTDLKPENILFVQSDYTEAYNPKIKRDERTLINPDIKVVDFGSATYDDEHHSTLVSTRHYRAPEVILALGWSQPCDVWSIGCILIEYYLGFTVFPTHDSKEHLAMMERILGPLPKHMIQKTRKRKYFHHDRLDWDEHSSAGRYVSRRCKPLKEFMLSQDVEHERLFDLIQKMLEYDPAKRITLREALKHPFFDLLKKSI

For `Cc1ccc(S(=O)(=O)Nc2nc3ccccc3nc2Nc2ccc3nsnc3c2)cc1`, the Kd in assay [1], in assay [2], in assay [3], in assay [4], in assay [5] and in assay [6] was > 30 µM (inactive) each time.
Take `CCS(=O)(=O)N1CC(CC#N)(n2cc(-c3ncnc4[nH]ccc34)cn2)C1` [BARICITINIB]: the Kd was > 30 µM (inactive) in assay [1]; > 30 µM (inactive) in assay [2]; > 30 µM (inactive) in assay [3]; > 30 µM (inactive) in assay [4]; > 30 µM (inactive) in assay [5]; 0.778 µM in assay [6].
As for `Cc1ccc(-n2nc(C(C)(C)C)cc2NC(=O)NCc2cc(F)ccc2Oc2ccc3c(cnn3CCO)c2)cc1` [PEXMETINIB], the Kd is > 30 µM (inactive) in assay [1]; > 30 µM (inactive) in assay [2]; > 30 µM (inactive) in assay [3]; 4.16 µM (active) in assay [4]; > 30 µM (inactive) in assay [5]; > 30 µM (inactive) in assay [6].
`CNS(=O)(=O)Nc1nccc(Cc2c(C)c3ccc(Oc4ncccn4)cc3oc2=O)c1F` [AVUTOMETINIB]: the Kd in assay [1], in assay [2], in assay [3], in assay [4], in assay [5] and in assay [6] was > 30 µM (inactive) each time.
On to `COc1ccc(-c2ccc3c(N4CCOC[C@@H]4C)nc(N4CCOC[C@@H]4C)nc3n2)cc1CO` [AZD-8055], for which the Kd in assay [1], in assay [2], in assay [3], in assay [4], in assay [5] and in assay [6] was > 30 µM (inactive) each time.
As for `C1=C/COCc2cc(ccc2OCCN2CCCC2)Nc2nccc(n2)-c2cccc(c2)COC/1` [PACRITINIB], the Kd in assay [1] was > 30 µM (inactive); in assay [2] it was > 30 µM (inactive); in assay [3], > 30 µM (inactive); in assay [4], > 30 µM (inactive); in assay [5], 0.003 µM; in assay [6] it was 0.138 µM.
In the case of `O=C(O)[C@]1(Cc2cccc(Nc3nccs3)n2)CC[C@@H](Oc2cccc(Cl)c2F)CC1` [MK-5108], the Kd in assay [1], in assay [2], in assay [3], in assay [4], in assay [5] and in assay [6] was > 30 µM (inactive) throughout.
Regarding `COc1cc2nccc(Oc3ccc(NC(=O)Nc4cc(C)on4)c(Cl)c3)c2cc1OC` [TIVOZANIB], the Kd in assay [1], in assay [2], in assay [3], in assay [4], in assay [5] and in assay [6] was > 30 µM (inactive) in each case.
With `COc1cc(N2CCC(N3CCN(C)CC3)CC2)ccc1Nc1ncnc(Nc2ccccc2S(=O)(=O)C(C)C)n1` [ASP-3026], the Kd in assay [1], in assay [2], in assay [3], in assay [4], in assay [5] and in assay [6] was > 30 µM (inactive) each time.
In the case of `CN1CCC(CNc2ccc3ncc(-c4cccc(OC(F)(F)F)c4)n3n2)CC1` [SGI-1776], the Kd in assay [1], in assay [2], in assay [3], in assay [4], in assay [5] and in assay [6] was > 30 µM (inactive) throughout.
Regarding `CC(=O)Nc1cccc(-n2c(=O)n(C3CC3)c(=O)c3c(Nc4ccc(I)cc4F)n(C)c(=O)c(C)c32)c1` [TRAMETINIB], the Kd in assay [1], in assay [2], in assay [3], in assay [4], in assay [5] and in assay [6] was > 30 µM (inactive) throughout.
In the case of `CCCS(=O)(=O)Nc1ccc(F)c(C(=O)c2c[nH]c3ncc(-c4ccc(Cl)cc4)cc23)c1F` [VEMURAFENIB], the Kd in assay [1], in assay [2], in assay [3], in assay [4], in assay [5] and in assay [6] was > 30 µM (inactive) throughout.
Regarding `COCCNCc1ccc(-c2cc3nccc(Oc4ccc(NC(=S)NC(=O)Cc5ccc(F)cc5)cc4F)c3s2)nc1` [GLESATINIB], the Kd in assay [1], in assay [2], in assay [3], in assay [4], in assay [5] and in assay [6] was > 30 µM (inactive) throughout.
Take `COC(=O)[C@@]1(O)C[C@H]2O[C@]1(C)n1c3ccccc3c3c4c(c5c6ccccc6n2c5c31)C(=O)NC4` [K-252A]: the Kd in assay [1] is > 30 µM (inactive); in assay [2], > 30 µM (inactive); in assay [3], > 30 µM (inactive); in assay [4] it was 0.911 µM (active); in assay [5], > 30 µM (inactive); in assay [6], 0.01 µM (active).
On to `Cn1cc(-c2ccc3nnc(C(F)(F)c4ccc5ncccc5c4)n3n2)cn1` [JNJ-38877605], for which the Kd in assay [1], in assay [2], in assay [3], in assay [4], in assay [5] and in assay [6] was > 30 µM (inactive) each time.
As for `Cc1cc([C@@H](C)Nc2ccccc2C(=O)O)c2nc(N3CCOCC3)cc(=O)n2c1` [AZD-6482], the Kd in assay [1], in assay [2], in assay [3], in assay [4], in assay [5] and in assay [6] was > 30 µM (inactive) throughout.

The values above are taken from ChEMBL document CHEMBL3991601, “The target landscape of clinical kinase drugs” (Science, 2017).
